Like-named read-outs stand apart in the source and are kept apart here.
How the values were obtained:
[1] = tested on: WT (wild-type HIV virus; recombinant NL4-3 virus); assay: microbe, parasite or virus in culture; assay type: cell-based, HIV-1
Procedure, shortened: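 MT-2 cells infected 4-5 days with NL4-3 carrying Renilla luciferase in place of part of nef (Gag P373S), virus made by 293T transfection, with serial inhibitor dilutions. Antiviral activity read as luciferase activity by a modified dual-luciferase read-out.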

[2] = tested on: HIV-1 NL4-3 gag A364V virus; assay: microbe, parasite or virus in culture; assay type: cell-based
Procedure, shortened: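 Recombinant NL4-3 reporter virus with Renilla luciferase replacing part of nef, made by transfection of 293T cells. MT-2 cells infected for 4-5 days with serial inhibitor dilutions; antiviral activity quantified by luciferase activity.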

[3] = tested on: HIV-1 92UG029 (clade A virus); assay: HIV cell culture assay, 92UG029 Gag/Pr recombinant virus in MT-2 cells; assay type: cell-based
Protocol: MT-2 cells and 293T cells were obtained from the NIH AIDS Research and Reference Reagent Program. MT-2 cells were propagated in RPMI 1640 media supplemented with 10% heat-inactivated fetal bovine serum, […]. The 293T cells were propagated in DMEM media supplemented with 10% heat-inactivated fetal bovine serum (FBS), 100 units/mL penicillin G and 100 μg/mL streptomycin. The proviral DNA clone of NL4-3 was obtained from the NIH AIDS Research and Reference Reagent Program. A recombinant NL4-3 virus, in which a section of the nef gene from NL4-3 was replaced with the Renilla luciferase gene, was used as a reference virus. In addition, residue Gag P373 was converted to P373S. Briefly, the recombinant virus was prepared by transfection of the altered proviral clone of NL4-3. Transfections were performed in 293T cells using LipofectAMINE PLUS from Invitrogen (Carlsbad, Calif.), according to manufacturer's instruction. The virus was titered in MT-2 cells using luciferase enzyme activity as a marker. Luciferase was quantitated using the Dual Luciferase kit from Promega (Madison, Wis.), with modifications to the manufacturer's protocol. The diluted Passive Lysis solution was pre-mixed with the re-suspended Luciferase Assay Reagent and the re-suspended Stop & Glo Substrate (2:1:1 ratio). Fifty (50) μL of the mixture was added to each aspirated well on assay plates and luciferase activity was measured immediately on a Wallac TriLux (Perkin-Elmer). Antiviral activities of inhibitors toward the recombinant virus were quantified by measuring luciferase activity in cells infected for 4-5 days with NLRluc recombinants in the presence serial dilutions of the inhibitor.
Determination of EC50 for WT, EC50 for A364V, and EC50 for 92UG029 viruses:
HIV-1 92UG029 was obtained from the NIH (Catalog Number: 1650). This is a subtype A Gag and subtype A Env, X4 (SI) virus from Uganda. Reference: WHO Network for HIV Isolation and Characterization. AIDS Res Hum Retroviruses 10:1359, 1994. The Gag/Pr region from 92UG029 was used to replace that in an HIV-1 NL4-3 virus expressing Renilla luciferase gene.
Both recombinant viruses were used as described above in the HIV cell culture assay for the NL4-3 virus.

[4] = Rat PO pharmacokinetic study; assay type: in vivo; conditions: male, Sprague-Dawley, plasma, oral dose of 5 mg/kg, PEG-400/ethanol (90/10) solution, fasted rats
Protocol: Rat Pharmacokinetic Studies:
For the PO pharmacokinetic studies of the compounds in rats, the compounds were each dissolved in PEG-400/ethanol (90/10) as a solution.
Rat. Male Sprague-Dawley rats (300-350 g, Hilltop Lab Animals, Inc., Scottsdale, Pa.) with cannulas implanted in the jugular vein were used. The rats were fasted overnight in the PO pharmacokinetic studies. Blood samples of 0.3 mL were collected from the jugular vein in EDTA-containing microtainer tubes (Becton Dickinson, Franklin Lakes, N.J.), and centrifuged to separate plasma.
In the PO study of the tested compounds, the rats (n=3) received an oral dose of 5 mg/kg of the indicated compound. Serial blood samples were collected before dosing and 15, 30, 45, 60, 120, 240, 360, 480, and 1440 min after dosing.
Quantitation of Compounds in Plasma. Aliquots of plasma samples from rat, studies were prepared for analysis by precipitating plasma proteins with two volumes of acetonitrile containing an internal standard of a similar compound. The resulting supernates were separated from the precipitated proteins by centrifugation for 10 minutes and transferred to autosampler vials. Samples were either prepared manually, or with the use of the Tomtec automated liquid handler. An aliquot of 5 μL was injected for analysis.
The HPLC system consisted of two Shimadzu LC10AD pumps (Columbia, Md.), a Shimadzu SIL-HTC autosampler (Columbia, Md.), and a Hewlett Packard Series 1100 column compartment (Palo Alto, Calif.). The column was a YMC Pro C18 (2.0×50 mm, 3 μm particles, Waters Co., Milford, Mass.), maintained at 60° C. and a flow rate of 0.3 ml/min. The mobile phase consisted of 10 mM ammonium formate and 0.1% formic acid in water (A) and 100% 10 mM ammonium formate and 0.1% formic acid in methanol (B). The initial mobile phase composition was 95% A. After sample injection, the mobile phase was changed to 15% A/85% B over 2 minutes and held at that composition for an additional 1 minute. The mobile phase was then returned to initial conditions and the column re-equilibrated for 1 minute. Total analysis time was 4 minutes.
The HPLC was interfaced to a Micromass Quattro LC. Ultra high purity nitrogen was used as the nebulizing and desolvation gas at flow rates of 100 L/hr for nebulization and 1100 L/hr for desolvation. The desolvation temperature was 300° C. and the source temperature was 150° C. Data acquisition utilized selected reaction monitoring (SRM). Ions representing the (M+H)^+ species for the compound and the internal standard were selected in MS1 and collisionally dissociated with argon at a pressure of 2×10^−3 torr to form specific product ions which were subsequently monitored by MS2.

[5] = Human immunodeficiency virus 1, NL43, MT2, read-out: EC50 WT (μM), Table 2, 3× higher viral input
[6] = Human immunodeficiency virus 1, NL43, MT2, read-out: WT (EC50, uM), Table 1 regular screen, MT-2 cells, luciferase readout
[7] = Human immunodeficiency virus 1, NL43, MT2, read-out: A364V (EC50, uM), Table 1 regular screen, MT-2 cells, luciferase readout
[8] = Human immunodeficiency virus 1, NL43, MT2, read-out: EC50 A364V (μM), Table 2, 3× higher viral input
[9] = Human immunodeficiency virus 1, MT2, read-out: 92UG029A Clade T332S/V362I/V370A (EC50, uM)
[10] = Human immunodeficiency virus 1, MT2, read-out: EC50 92UG029 (μM)

Compound | EC50 [1, 5] [µM] | EC50 [1, 6] [µM] | EC50 [2, 7] [µM] | EC50 [2, 8] [µM] | EC50 [3, 9] [µM] | EC50 [3, 10] [µM] | AUC [4] [µM·h] | potency vs. WT (in words) ([1]; comparative data) | fold less potent than Compound 2 vs A364V ([2]; relative to Compound 2) [fold] | fold less potent than Compound 2 vs 92UG029 ([3]; relative to Compound 2) [fold]
C=C(C)[C@@H]1CC[C@]2(NCCN3CCS(=O)(=O)CC3)CC[C@]3(C)[C@H](CC[C@@H]4[C@@]5(C)CC=C(C6=CCC(CF)(C(=O)O)CC6)C(C)(C)[C@@H]5CC[C@]43C)[C@@H]12 (mixture of isomers) [Example 2, 4-((1R,3aS,5aR,5bR,7aR,11aS,11bR,13aR,13bR)-3a-((2-(1,1-dioxidothiomorpholino)ethyl)amino)-5a,5b,8,8,11a-pentamethyl-1-(prop-1-en-2-yl)-2,3,3a,4,5,5a,5b,6,7,7a,8,11,11a,11b,12,13,13a,13b-octadecahydro-1H-cyclopenta[a]chrysen-9-yl)-1-(fluoromethyl)cyclohex-3-enecarboxylic acid] | 0.002 | 0.00129 | 0.0847 | 0.21 | 0.00461 | 0.005 | 7.93 | – | – | –
C=C(C)[C@@H]1CC[C@]2(NCCN3CCS(=O)(=O)CC3)CC[C@]3(C)[C@H](CC[C@@H]4[C@@]5(C)CC=C(C6=CC[C@](CF)(C(=O)O)CC6)C(C)(C)[C@@H]5CC[C@]43C)[C@@H]12 [Example 2a, (S)-4-((1R,3aS,5aR,5bR,7aR,11aS,11bR,13aR,13bR)-3a-((2-(1,1-dioxidothiomorpholino)ethyl)amino)-5a,5b, 8,8,11a-pentamethyl-1-(prop-1-en-2-yl)-2,3,3a,4,5,5a,5b,6,7,7a,8,11,11a,11b,12,13,13a,13b-octadecahydro-1H-cyclopenta[a]chrysen-9-yl)-1-(fluoromethyl)cyclohex-3-enecarboxylic acid] | 0.002 | 0.00198 | 0.16 | 0.78 | 0.00706 | 0.02 | 7.03 | – | – | –
C=C(C)[C@@H]1CC[C@]2(NCCN3CCS(=O)(=O)CC3)CC[C@]3(C)[C@H](CC[C@@H]4[C@@]5(C)CC=C(C6=CC[C@@](CF)(C(=O)O)CC6)C(C)(C)[C@@H]5CC[C@]43C)[C@@H]12 [Example 2b, (R)-4-((1R,3aS,5aR,5bR,7aR,11aS,11bR,13aR,13bR)-3a-((2-(1,1-dioxidothiomorpholino)ethyl)amino)-5a,5b,8,8,11a-pentamethyl-1-(prop-1-en-2-yl)-2,3,3a,4,5,5a,5b,6,7,7a,8,11,11a,11b,12,13,13a,13b-octadecahydro-1H-cyclopenta[a]chrysen-9-yl)-1-(fluoromethyl)cyclohex-3-enecarboxylic acid] | 0.003 | 0.00148 | 0.201 | 0.17 | 0.00618 | 0.001 | 7.39 | – | – | –
C=C(C)[C@@H]1CC[C@]2(NCCN3CCS(=O)(=O)CC3)CC[C@]3(C)[C@H](CC[C@@H]4[C@@]5(C)CC=C(C6=CCC(C)(C(=O)O)CC6)C(C)(C)[C@@H]5CC[C@]43C)[C@@H]12 (stereo partly shown) [Compound B, reference compound] | 0.002 | – | – | 1.3 | – | 0.03 | 6.46 | comparable potency | 6 | 6

— US10245275B2 (ViiV HEALTHCARE UK (NO.4) LIMITED, priority 2014, dated 2019)
